Test results published in publication PMC5855359, “A Statistical Thermodynamic Model for Ligands Interacting With Ion Channels: Theoretical Model and Experimental Validation of the KCNQ2 Channel” (Frontiers in Pharmacology, 2018).
pEC50: −log10 of the molar value.

Target: T1, KCNQ2 (Homo sapiens, UniProt O43526)
T1 construct: WT KCNQ2 homotetrameric channel expressed in CHO cells
Assay: whole-cell voltage clamp in transfected CHO cells, concentration-response of outward current potentiation
Assay type: cell-based

T1 sequence (O43526 whole entry): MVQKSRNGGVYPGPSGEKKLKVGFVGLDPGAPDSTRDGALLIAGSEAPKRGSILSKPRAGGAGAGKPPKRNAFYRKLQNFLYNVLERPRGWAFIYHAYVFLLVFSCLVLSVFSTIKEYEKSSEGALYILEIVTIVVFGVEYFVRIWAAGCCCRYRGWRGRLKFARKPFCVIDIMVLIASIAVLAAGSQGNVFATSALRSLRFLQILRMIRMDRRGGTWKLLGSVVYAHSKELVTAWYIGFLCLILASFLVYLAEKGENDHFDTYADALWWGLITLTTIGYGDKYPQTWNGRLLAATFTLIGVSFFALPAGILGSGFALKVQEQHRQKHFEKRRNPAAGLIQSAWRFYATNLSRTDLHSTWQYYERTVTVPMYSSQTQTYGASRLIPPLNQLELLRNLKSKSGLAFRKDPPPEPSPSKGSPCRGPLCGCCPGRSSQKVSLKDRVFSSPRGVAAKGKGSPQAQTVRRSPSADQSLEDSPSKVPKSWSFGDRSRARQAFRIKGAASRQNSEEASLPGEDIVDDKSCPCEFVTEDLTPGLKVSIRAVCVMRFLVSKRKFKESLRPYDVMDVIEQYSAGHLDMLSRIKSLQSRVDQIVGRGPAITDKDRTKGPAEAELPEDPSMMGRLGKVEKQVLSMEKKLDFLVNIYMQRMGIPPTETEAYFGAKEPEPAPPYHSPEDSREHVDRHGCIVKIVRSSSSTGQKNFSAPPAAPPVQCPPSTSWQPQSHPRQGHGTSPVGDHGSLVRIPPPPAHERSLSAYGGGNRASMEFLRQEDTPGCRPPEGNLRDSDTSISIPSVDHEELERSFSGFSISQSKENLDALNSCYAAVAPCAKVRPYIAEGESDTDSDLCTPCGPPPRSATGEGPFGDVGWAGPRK

O=C(Nc1ccc(Cl)nc1)c1ccc(F)cc1 [ztz240, N-(6-chloro-pyridin-3-yl)-4-fluorobenzamide]
pEC50: ~5.24
